Source: US10413562B2, “Compositions and methods for the production of pyrimidine and pyridine compounds with BTK inhibitory activity” (Merck Patent GmbH, priority 2011, dated 2019)
pIC50: −log10 of the molar value.

Experiments:
[1] = system: PBMC; assay: Time dependent PBMC IC50 assay; assay type: cell-based
Experimental: Compounds described by embodiments of the present invention were assayed using a time dependent PMBC assay.

[2] = system: NZB/W F1 mice; assay: Interferon-alpha accelerated systemic lupus erythematosus (SLE) mouse model; assay type: in vivo; details: ADV-IFN-alpha accelerated SLE, oral daily 0.1, 0.3, 1 or 3 mg/kg from day 14
Experimental: 1-(4-(((6-amino-5-(4-phenoxyphenyl)pyrimidin-4-yl)amino)methyl)piperidin-1-yl)prop-2-en-1-one, designated as “CPD. B”, was evaluated in an interferon-alpha accelerated SLE mouse model. NZB/W F1 mice received i.v. injection at day 0 and day 1 of 10^8 infectious units of adenovirus (ADV-IFN-α) to deliver a transient overexpression on interferon alpha. Oral dosing of the different group treatments was initiated on day 14 and continued daily at 24 hour intervals until the end of the study. Treatment groups consisted of 20% Kleptose HPB in Na-citrate buffer (vehicle) or 0.1, 0.3, 1, or 3 mg/kg of Cpd. […] As shown in Panel 1B Cpd. […] FIG. 2 presents data from another interferon-alpha accelerated SLE experiment in mice. NZB/W F1 mice received i.v. injections at day 0 and day 1 of 10^8 infectious units of adenovirus (ADV-IFN-α) to deliver a transient overexpression on interferon alpha. Oral dosing of the different group treatments (n=10) was initiated on day 14 and continued daily at 24 hour intervals until the end of the study. Treatment groups consisted of 20% Kleptose HPB in Na-citrate buffer (vehicle), 0.1, 0.3, 1, or 3 mg/kg of Cpd. B or Cell Cept®. […] Statiscal analysis was performed using Two way ANOVA with Bonferroni post test with all groups compared to vehicle treated group (*=p<0.05, **=p<0.01, ***=p<0.001).

| SMILES | pIC50 [1] | disease activity [2] |
| --- | --- | --- |
| C=CC(=O)N1C2CCC1CC(CNc1ncnc(N)c1-c1ccc(Oc3ccccc3)cc1)C2 (centres unmarked) [Compound A48, 1-(3-(((6-amino-5-(4-phenoxyphenyl)pyrimidin-4-yl)amino)methyl)-8-azabicyclo[3.2.1]octan-8-yl)prop-2-en-1-one] | > 6.00 |  |
| C=CC(=O)N1CCC(CNc2ncnc(N)c2-c2ccc(Oc3ccccc3)cc2)CC1 [Cpd. B, 1-(4-(((6-amino-5-(4-phenoxyphenyl)pyrimidin-4-yl)amino)methyl)piperidin-1-yl)prop-2-en-1-one] |  | reduces the disease activity in a dose-dependent manner |
